# According to ChEMBL document CHEMBL4251595, “Green approach for the synthesis of thiophenyl pyrazoles and isoxazoles by adopting 1,3-dipolar cycloaddition methodology and their antimicrobial activity” (2018):
# What was measured:
# Assay type in all cases: functional
# Klebsiella pneumoniae [1] = assay: Antimicrobial activity against Klebsiella pneumoniae after 24 hrs by broth dilution test
# Klebsiella pneumoniae [2] = assay: Antimicrobial activity against Klebsiella pneumoniae assessed as zone of inhibition at 50 ug/well after 24 hrs by agar well diffusion method; details: read-out: DIZ
# Aspergillus niger [3] = assay: Antifungal activity against Aspergillus niger assessed as zone of inhibition at 75 ug/well after 48 hrs by agar well diffusion method; details: read-out: DIZ
# Staphylococcus aureus [4] = assay: Antimicrobial activity against Staphylococcus aureus assessed as zone of inhibition at 75 ug/well after 24 hrs by agar well diffusion method; details: read-out: DIZ
# Penicillium chrysogenum [5] = assay: Antifungal activity against Penicillium chrysogenum assessed as zone of inhibition at 75 ug/well after 48 hrs by agar well diffusion method; details: read-out: DIZ
# Penicillium chrysogenum [6] = assay: Antifungal activity against Penicillium chrysogenum assessed as zone of inhibition at 50 ug/well after 48 hrs by agar well diffusion method; details: read-out: DIZ
# Aspergillus niger [7] = assay: Fungicidal activity against Aspergillus niger incubated for 48 hrs followed by replating on PDA and incubated for 48 hrs by broth dilution test
# Pseudomonas aeruginosa [8] = assay: Antimicrobial activity against Pseudomonas aeruginosa assessed as zone of inhibition at 50 ug/well after 24 hrs by agar well diffusion method; details: read-out: DIZ
# Klebsiella pneumoniae [9] = assay: Bactericidal activity against Klebsiella pneumoniae incubated for 24 hrs followed by replating on sterile nutrient broth and incubated for 24 hrs by broth dilution test
# Bacillus subtilis [10] = assay: Antimicrobial activity against Bacillus subtilis after 24 hrs by broth dilution test
# Pseudomonas aeruginosa [11] = assay: Antimicrobial activity against Pseudomonas aeruginosa assessed as zone of inhibition at 100 ug/well after 24 hrs by agar well diffusion method; details: read-out: DIZ
# Penicillium chrysogenum [12] = assay: Antifungal activity against Penicillium chrysogenum assessed as zone of inhibition at 100 ug/well after 48 hrs by agar well diffusion method; details: read-out: DIZ
# Bacillus subtilis [13] = assay: Antimicrobial activity against Bacillus subtilis assessed as zone of inhibition at 75 ug/well after 24 hrs by agar well diffusion method; details: read-out: DIZ
# Pseudomonas aeruginosa [14] = assay: Bactericidal activity against Pseudomonas aeruginosa incubated for 24 hrs followed by replating on sterile nutrient broth and incubated for 24 hrs by broth dilution test
# Klebsiella pneumoniae [15] = assay: Antimicrobial activity against Klebsiella pneumoniae assessed as zone of inhibition at 100 ug/well after 24 hrs by agar well diffusion method; details: read-out: DIZ
# Penicillium chrysogenum [16] = assay: Antifungal activity against Penicillium chrysogenum after 48 hrs by broth dilution test
# Staphylococcus aureus [17] = assay: Antimicrobial activity against Staphylococcus aureus assessed as zone of inhibition at 50 ug/well after 24 hrs by agar well diffusion method; details: read-out: DIZ
# Staphylococcus aureus [18] = assay: Antimicrobial activity against Staphylococcus aureus assessed as zone of inhibition at 100 ug/well after 24 hrs by agar well diffusion method; details: read-out: DIZ
# Pseudomonas aeruginosa [19] = assay: Antimicrobial activity against Pseudomonas aeruginosa after 24 hrs by broth dilution test
# Bacillus subtilis [20] = assay: Antimicrobial activity against Bacillus subtilis assessed as zone of inhibition at 50 ug/well after 24 hrs by agar well diffusion method; details: read-out: DIZ
# Aspergillus niger [21] = assay: Antifungal activity against Aspergillus niger after 48 hrs by broth dilution test
# Aspergillus niger [22] = assay: Antifungal activity against Aspergillus niger assessed as zone of inhibition at 100 ug/well after 48 hrs by agar well diffusion method; details: read-out: DIZ
# Aspergillus niger [23] = assay: Antifungal activity against Aspergillus niger assessed as zone of inhibition at 50 ug/well after 48 hrs by agar well diffusion method; details: read-out: DIZ
# Staphylococcus aureus [24] = assay: Antimicrobial activity against Staphylococcus aureus after 24 hrs by broth dilution test
# Pseudomonas aeruginosa [25] = assay: Antimicrobial activity against Pseudomonas aeruginosa assessed as zone of inhibition at 75 ug/well after 24 hrs by agar well diffusion method; details: read-out: DIZ
# Bacillus subtilis [26] = assay: Bactericidal activity against Bacillus subtilis incubated for 24 hrs followed by replating on sterile nutrient broth and incubated for 24 hrs by broth dilution test
# Staphylococcus aureus [27] = assay: Bactericidal activity against Staphylococcus aureus incubated for 24 hrs followed by replating on sterile nutrient broth and incubated for 24 hrs by broth dilution test
# Klebsiella pneumoniae [28] = assay: Antimicrobial activity against Klebsiella pneumoniae assessed as zone of inhibition at 75 ug/well after 24 hrs by agar well diffusion method; details: read-out: DIZ
# Bacillus subtilis [29] = assay: Antimicrobial activity against Bacillus subtilis assessed as zone of inhibition at 100 ug/well after 24 hrs by agar well diffusion method; details: read-out: DIZ
# Penicillium chrysogenum [30] = assay: Fungicidal activity against Penicillium chrysogenum incubated for 48 hrs followed by replating on PDA and incubated for 48 hrs by broth dilution test
SMILES,MIC (Klebsiella pneumoniae [1]),zone of inhibition at 50 µg/disc (Klebsiella pneumoniae [2]),zone of inhibition at 75 µg/disc (Aspergillus niger [3]),zone of inhibition at 75 µg/disc (Staphylococcus aureus [4]),zone of inhibition at 75 µg/disc (Penicillium chrysogenum [5]),zone of inhibition at 50 µg/disc (Penicillium chrysogenum [6]),MFC (Aspergillus niger [7]),zone of inhibition at 50 µg/disc (Pseudomonas aeruginosa [8]),MBC (Klebsiella pneumoniae [9]),MIC (Bacillus subtilis [10]),zone of inhibition at 100 µg/disc (Pseudomonas aeruginosa [11]),zone of inhibition at 100 µg/disc (Penicillium chrysogenum [12]),zone of inhibition at 75 µg/disc (Bacillus subtilis [13]),MBC (Pseudomonas aeruginosa [14]),zone of inhibition at 100 µg/disc (Klebsiella pneumoniae [15]),MIC (Penicillium chrysogenum [16]),zone of inhibition at 50 µg/disc (Staphylococcus aureus [17]),zone of inhibition at 100 µg/disc (Staphylococcus aureus [18]),MIC (Pseudomonas aeruginosa [19]),zone of inhibition at 50 µg/disc (Bacillus subtilis [20]),also measured
O=C(NS(=O)(=O)c1c(-c2ccccc2)nn(-c2ccccc2)c1-c1ccc([N+](=O)[O-])cc1)c1ccc(Cl)s1,25 µg/mL,30 mm,31 mm,28 mm,25 mm,24 mm,50 µg/mL,22 mm,100 µg/mL,6.25 µg/mL,26 mm,29 mm,38 mm,50 µg/mL,37 mm,50 µg/mL,24 mm,29 mm,12.5 µg/mL,35 mm,MIC (Aspergillus niger [21]): 12.5 µg/mL; zone of inhibition at 100 µg/disc (Aspergillus niger [22]): 34 mm; zone of inhibition at 50 µg/disc (Aspergillus niger [23]): 29 mm; MIC (Staphylococcus aureus [24]): 50 µg/mL; zone of inhibition at 75 µg/disc (Pseudomonas aeruginosa [25]): 23 mm; MBC (Bacillus subtilis [26]): 12.5 µg/mL; MBC (Staphylococcus aureus [27]): 200 µg/mL; zone of inhibition at 75 µg/disc (Klebsiella pneumoniae [28]): 33 mm; zone of inhibition at 100 µg/disc (Bacillus subtilis [29]): 41 mm; MFC (Penicillium chrysogenum [30]): 200 µg/mL
O=C(NS(=O)(=O)c1c(-c2ccccc2)noc1-c1ccc([N+](=O)[O-])cc1)c1ccc(Cl)s1,25 µg/mL,32 mm,37 mm,30 mm,29 mm,27 mm,12.5 µg/mL,23 mm,100 µg/mL,6.25 µg/mL,28 mm,33 mm,39 mm,50 µg/mL,38 mm,50 µg/mL,27 mm,32 mm,12.5 µg/mL,37 mm,MIC (Aspergillus niger [21]): 6.25 µg/mL; zone of inhibition at 100 µg/disc (Aspergillus niger [22]): 40 mm; zone of inhibition at 50 µg/disc (Aspergillus niger [23]): 35 mm; MIC (Staphylococcus aureus [24]): 50 µg/mL; zone of inhibition at 75 µg/disc (Pseudomonas aeruginosa [25]): 25 mm; MBC (Bacillus subtilis [26]): 12.5 µg/mL; MBC (Staphylococcus aureus [27]): 200 µg/mL; zone of inhibition at 75 µg/disc (Klebsiella pneumoniae [28]): 35 mm; zone of inhibition at 100 µg/disc (Bacillus subtilis [29]): 44 mm; MFC (Penicillium chrysogenum [30]): 200 µg/mL
O=C(NS(=O)(=O)c1c(-c2ccccc2)nn(-c2ccccc2)c1-c1ccc([N+](=O)[O-])cc1)c1cccs1,25 µg/mL,29 mm,28 mm,26 mm,24 mm,22 mm,100 µg/mL,20 mm,100 µg/mL,6.25 µg/mL,24 mm,27 mm,36 mm,100 µg/mL,34 mm,100 µg/mL,23 mm,27 mm,25 µg/mL,33 mm,MIC (Aspergillus niger [21]): 25 µg/mL; zone of inhibition at 100 µg/disc (Aspergillus niger [22]): 31 mm; zone of inhibition at 50 µg/disc (Aspergillus niger [23]): 25 mm; MIC (Staphylococcus aureus [24]): 50 µg/mL; zone of inhibition at 75 µg/disc (Pseudomonas aeruginosa [25]): 21 mm; MBC (Bacillus subtilis [26]): 12.5 µg/mL; MBC (Staphylococcus aureus [27]): 200 µg/mL; zone of inhibition at 75 µg/disc (Klebsiella pneumoniae [28]): 32 mm; zone of inhibition at 100 µg/disc (Bacillus subtilis [29]): 40 mm; MFC (Penicillium chrysogenum [30]): > 200 µg/mL
